Literature values as cited in patent publication US20070178051A1, “STERILIZED NANOPARTICULATE GLUCOCORTICOSTEROID FORMULATIONS” (Elan Pharma International, Ltd., priority 2006, published 2007).

Compound | solubility in chloroform (chloroform) | solubility in ethanol (ethanol) | solubility in heptane (heptane) | solubility in water
CCCC1O[C@@H]2C[C@H]3C4CCC5=CC(=O)C=CC5(C)[C@H]4[C@@H](O)CC3(C)C2(C(=O)CO)O1 (mixture of isomers) [Budesonide, (RS)-11,16,17,21-Tetrahydroxy-pregna-1,4-diene-3,20-dione cyclic 16,17-acetal with butraldehyde] | freely soluble | sparingly soluble | practically insoluble | practically insoluble
CCC(=O)O[C@]1(C(=O)SCF)[C@H](C)C[C@H]2[C@@H]3C[C@H](F)C4=CC(=O)C=C[C@]4(C)[C@@]3(F)[C@@H](O)C[C@@]21C [Fluticasone propionate, S-(fluoromethyl) 6a,9-difluoro-11b, 17-dihydroxy-16a-methyl-3-oxoandrosta-1,4-diene-17b-carbothioate, 17-propionate] | – | – | – | practically insoluble
